Two molecules from paper PMC2784932 (Biochemistry, 2009) can be followed below.

Assay [1] relates to (Pro-Hyp-Gly)10. Description: DSC of triple-helical peptide in presence of Phe. To be noted: PBS pH 7, peptide c=1mg/ml, molar ratio peptide:Phe = 1:200.
The subject of assay [2] is T4Y. Description: Effect of isolated Phe on self-association by turbidity. To be noted: T4Y c=7mg/ml, 44°C, PBS, 1peptide:60F.
The subject of assay [3] is FT4Y. The description is as above. Particulars: FT4Y c=3mg/ml, 46°C, data not shown.
Assay [4] concerns the target T4, type IV collagen model peptide (POG)3QOGLOGLOG(POG)4. Description: critical concentration.
Assay [5] has the same target. Nature of the assay: dynamic light scattering.

Take `N[C@@H](Cc1ccccc1)C(=O)O` [Phe, L-phenylalanine]: the “effect on thermal stability of (Pro-Hyp-Gly)10 by DSC” value in assay [1] was “slight destabilization”. In addition, the “effect on self-association of T4Y” value in assay [2] is reported as “substantial delay in self-association”. In addition, the “effect on self-association of FT4Y” value in assay [3] is “substantial delay in self-association”.

Molecule “T4, type IV collagen model peptide (POG)3QOGLOGLOG(POG)4” came in with a critical concentration in assay [4] of 5.9 mg/mL. The same molecule showed a stoichiometry N in assay [5] of 3.
